Columns and labels:
AML BMMC leukemic blasts = assay: SCNP modulated signaling assay, AML study No. 2 (BMMC, CR vs NR, clinical sub-groups); format: cell-based, human
Protocol: Two independent sets of cryopreserved samples were analyzed sequentially. The first set consisted of 35 peripheral blood mononuclear cell (PBMC) samples derived from AML patients. The second set consisted of 134 cryopreserved bone marrow mononuclear cell (BMMC) samples derived from AML patients. These samples were the same samples used in the previous examples. Sample inclusion criteria required collection prior to initiation of induction chemotherapy, AML classification by the French-American-British (FAB) criteria as M0 through M7 (excluding M3) and availability of clinical annotations.
In the first study, induction chemotherapy consisted of at least one cycle of standard cytarabine-based induction therapy (i.e. daunorubicin 60 mg/m^2×3 days, cytarabine 100-200 mg/m^2 continuous infusion×7 days); responses were measured after one cycle of induction therapy. In the second study, cytarabine (200 mg/m^2 to 3 g/m^2) was used in combination with an anthracycline (daunorubicin or idarubicin) or an additional anti-metabolite (e.g. fludarabine or troxacitabine), and sometimes, an experimental agent (Table 16). […] Standard clinical and laboratory criteria were used for defining complete response (CR) in both studies. […] Classified as “CRp,” these samples were included in the CR group for all primary analysis. The univariate analyses were also repeated with the CRp patients classified into the NR sample group for sensitivity analysis.
Cyropreserved samples were thawed at […], washed and centrifuged in PBS, 10% FBS and 2 mM EDTA. The cells were re-suspended, filtered to remove debris and washed in RPMI cell culture media, 1% FBS, then stained with Live/Dead Fixable Aqua Viability Dye to distinguish non-viable cells. The cells were then re-suspended in RPMI, 1% FBS, aliquoted to 100,000 cells/condition and rested for 1-2 hours at 37° C. prior to SCNP assays. Each condition included two to five phenotypic markers for cell population gating (eg, CD45, CD33), up to three intracellular stains or up to three additional surface markers or control antibodies for an eight-color flow cytometry assay.
Functional assays were performed as previously described. Cells were incubated with modulators (Table 18), at 37° C. for 3-15 minutes, fixed with 1.6% paraformaldehyde (final concentration) for 10 minutes at 37° C., pelleted and permeabilized with 100% ice-cold methanol and stored at −80° C.
Data was acquired using FACS DIVA software on both LSR II and CANTO II Flow Cytometers (BD). For all analyses, dead cells and debris were excluded by forward scatter (FSC), side scatter (SSC), and Amine Aqua Viability Dye measurement. Leukemic cells were identified as cells that lacked the characteristics of mature lymphocytes (CD45^++, CD33^−) and that fit the CD45 and CD33 versus right-angle light-scatter characteristics consistent with myeloid leukemia cells.
The median fluorescence intensity (MFI) was computed for each node from the fluorescence intensity levels for the cells in the myeloid population. The MFI values were then used to compute a variety of metrics by comparing them to baseline or background values, including the unmodulated condition, cellular autofluorescence and antibody isotype controls. The following metrics were computed: • 1. Basal MFI (“Basal”)=log2(MFIUnmodulated Stained)−log2(MFIGated Unstained (Autofluoresence)), designed to measure the basal levels of a certain protein under unmodulated conditions. • 2.

AML blasts = assay: SCNP / phospho-flow modulated signaling assay, AML study No. 1 (PBMC at diagnosis, CR vs NR); format: cell-based, human
Description: The present illustrative example represents how to analyze cells in one embodiment of the present invention. There are several steps in the process, such as the stimulation step, the staining step and the flow cytometry step. The stimulation step of the phospho-flow procedure can start with vials of frozen cells and end with cells fixed and permeabilized in methanol. Then the cells can be stained with an antibody directed to a particular protein of interest and then analyzed using a flow cytometer.
Frozen cells are thawed in a 37° C. water bath and gently resuspended in the vial and transferred to the 15 mL conical tube. The 15 mL tube is centrifuged at 930 RPM (200×g) for 8 minutes at room temperature. The supernatant is aspirated and the pellet is gently resuspended in 1 mL media A. The cell suspension is filtered through a 70 um cell strainer into a new 15 mL tube. The cell strainer is rinsed with 1 mL media A and another 12 ml of media A into the 15 mL tube. The cells are mixed into an even suspension. A 20 μL aliquot is immediately removed into a 96-well plate containing 180 μL PBS+4% FBS+CD45 Alexa 700+PI to determine cell count and viability post spin. After the determination, the 15 mL tubes are centrifuged at 930 RPM (200×g) for 8 minutes at room temperature. The supernatant is aspirated and the cell pellet is gently resuspended in 4 mL PBS+4 μL Amine Aqua and incubated for 15 min in a 37° C. incubator. 10 mL RPMI+1% FBS is added to the cell suspension and the tube is inverted to mix the cells. The 15 mL tubes are centrifuged at 930 RPM (200×g) for 8 minutes at room temperature. The cells are resuspended in Media A at the desired cell concentration (1.25×10^6/mL). For samples with low numbers of cells (<18.5×10^6), the cells are resuspended in up to 15 mL media. For samples with high numbers of cells (>18.5×10^6), the volume is raised to 10 mL with media A and the desired volume is transferred to a new 15 mL tube, and the cell concentration is adjusted to 1.25×10^6 cells/ml. 1.6 mL of the above cell suspension (concentration at 1.25×10^6 cells/ml) is transferred into wells of a multi-well plate. From this plate, 80 ul is dispensed into each well of a subsequent plate. The plates are covered with a lid (Nunc) and placed in a 37° C. incubator for 2 hours to rest.
A concentration for each stimulant that is five folds more (5×) than the final concentration is prepared using Media A as diluent. 5× stimuli are arrayed into wells of a standard 96 well v-bottom plate that correspond to the wells on the plate with cells to be stimulated.
Adding the stimulant: The cell plate(s) are taken out of the incubator and placed in a 37° C. water bath next to the pipette apparatus. The cell plate is taken from the water bath and gently swirled to resuspend any settled cells. With pipettor, the stimulant is dispensed into the cell plate and vortexed at “7” for 5 seconds. The deep well plate is put back into the water bath.
Adding Fixative: 200 μl of the fixative solution (final concentration at 1.6%) is dispensed into wells and then mixed on the titer plate shaker on high for 5 seconds. The plate is covered with foil sealer and incubated in a 37° C. water bath for 10 minutes. The plate is spun for 6 minutes at 2000 rpm at room temperature. The cells are aspirated using a 96 well plate aspirator (VP Scientific). The plate is vortexed to resuspend cell pellets in the residual volume. The pellet is ensured to be dispersed before the Methanol step (see cell permeabilization) or clumping will occur.
Cell Permeabilization: Permeability agent, for example methanol, is added slowly and while the plate is vortexing. To do this, the cell plate is placed on titer plate shaker and made sure it is secure. The plate is set to shake using the highest setting. A pipetter is used to add 0.6 mls of 100% methanol to the plate wells. The plate(s) are put on ice until this step has been completed for all plates.

[1] = Study No. 2, all patients, CR samples
[2] = Study No. 1 sensitivity analysis, CR samples
[3] = Study No. 1 sensitivity analysis, NR samples incl. CRp
[4] = Study No. 2, all patients, CR samples, negative = down regulation
[5] = Study No. 2, all patients, NR samples

CCCCCCCCCCCCCC(=O)O[C@@H]1[C@@H](C)[C@@]2(O)[C@@H](C=C(CO)C[C@]3(O)C(=O)C(C)=C[C@@H]23)[C@@H]2C(C)(C)[C@]12OC(C)=O [PMA, reference compound]
Mean Value of CRs, p-Erk Fold (AML BMMC leukemic blasts; [1]): 2.82
Mean Value of CRs, p-CREB Total Phospho (AML BMMC leukemic blasts; Study No. 2, patients less than 60 years old, CR samples): 3.72
Mean Value of NRs, p-CREB Total Phospho (AML BMMC leukemic blasts; Study No. 2, patients less than 60 years old, NR samples): 5.00

EPO
Mean Value of CRs, p-Stat1 Total Phospho (AML blasts; [2]): 0.17
Mean Value of CRs, p-Stat3 Total Phospho (AML blasts; [2]): 0.64
Mean Value of NRs, p-Stat1 Total Phospho (AML blasts; [3]): 0.42
Mean Value of NRs, p-Stat3 Total Phospho (AML blasts; [3]): 1.23

GM-CSF: granulocyte macrophage stimulating factor
increase in p-Akt and p-S6 levels (AML blasts; Staurosporine Resistant category vs other apoptosis categories): greatest increase in p-Akt and p-S6 levels
Mean Value of CRs, p-Stat3 Total Phospho (AML blasts; [2]): 0.83
Mean Value of NRs, p-Stat3 Total Phospho (AML blasts; [3]): 1.23
Jak/Stat response (G-CSF: p-Stat3, p-Stat5; GM-CSF: p-Stat5) (AML blasts; all samples of the Staurosporine Resistant apoptosis category): Robust Jak/Stat responses

IGF-1
Mean Value of CRs, p-Plcγ2 Total Phospho (AML blasts; [2]): 1.82
Mean Value of CRs, p-CREB Alexa488 Total Phospho (AML blasts; Study No. 1 sensitivity analysis, CR samples, Alexa488 conjugate): 1.11
Mean Value of CRs, p-CREB PE Total Phospho (AML blasts; Study No. 1 sensitivity analysis, CR samples, PE conjugate): 1.42
Mean Value of NRs, p-Plcγ2 Total Phospho (AML blasts; [3]): 2.76
Mean Value of NRs, p-CREB Alexa488 Total Phospho (AML blasts; Study No. 1 sensitivity analysis, NR samples incl. CRp, Alexa488 conjugate): 1.62
Mean Value of NRs, p-CREB PE Total Phospho (AML blasts; Study No. 1 sensitivity analysis, NR samples incl. CRp, PE conjugate): 2.29

IL-6: interleukin 6, cytokine modulator
Mean Value of CRs, p-Stat3 Total Phospho (AML BMMC leukemic blasts; [1]): 1.76
Mean Value of CRs, p-Stat5 Fold (AML BMMC leukemic blasts; [1]): 0.13
Mean Value of CRs, p-Stat1 Fold (AML BMMC leukemic blasts; [4]): −0.01
Mean Value of CRs, p-Stat3 Fold (AML BMMC leukemic blasts; [4]): 0.12
Mean Value of NRs, p-Stat1 Fold (AML BMMC leukemic blasts; [5]): 0.26
Mean Value of NRs, p-Stat3 Fold (AML BMMC leukemic blasts; [5]): 1.09
Mean Value of NRs, p-Stat3 Total Phospho (AML BMMC leukemic blasts; [5]): 2.98
Mean Value of NRs, p-Stat5 Fold (AML BMMC leukemic blasts; [5]): 0.55
Mean Value of CRs, p-CREB Total Phospho (AML blasts; [2]): 1.58
Mean Value of CRs, p-Stat3 Total Phospho (AML blasts; [2]): 1.08
Mean Value of NRs, p-CREB Total Phospho (AML blasts; [3]): 2.44
Mean Value of NRs, p-Stat3 Total Phospho (AML blasts; [3]): 1.81

IL-10: interleukin 10, cytokine modulator
Mean Value of CRs, p-Stat5 Fold (AML BMMC leukemic blasts; [1]): 0.09
Mean Value of CRs, p-Stat3 Fold (AML BMMC leukemic blasts; [4]): 0.08
Mean Value of NRs, p-Stat3 Fold (AML BMMC leukemic blasts; [5]): 0.39
Mean Value of CRs, p-Stat5 Fold (AML BMMC leukemic blasts; Study No. 2, patients with de novo AML, CR samples): 0.06
Mean Value of CRs, p-Stat1 Total Phospho (AML blasts; [2]): 0.17
Mean Value of CRs, p-Stat3 Total Phospho (AML blasts; [2]): 0.72
Mean Value of NRs, p-Stat1 Total Phospho (AML blasts; [3]): 0.47
Mean Value of NRs, p-Stat3 Total Phospho (AML blasts; [3]): 1.69

B1: CD40L (protein, UniProt P29965 113-261, looked up)
CD40 ligand, soluble form: MQKGDQNPQIAAHVISEASSKTTSVLQWAEKGYYTMSNNLVTLENGKQLTVKRQGLYYIYAQVTFCSNREASSQAPFIASLCLKSPGRFERILLRAANTHSSAKPCGQQSIHLGGVFELQPGASVFVNVTDPSQVSHGTGFTSFGLLKL
Mean Value of CRs, p-CREB Total Phospho (AML blasts; [2]): 1.37
Mean Value of CRs, p-Erk Total Phospho (AML blasts; [2]): 1.18
Mean Value of NRs, p-CREB Total Phospho (AML blasts; [3]): 2.67
Mean Value of NRs, p-Erk Total Phospho (AML blasts; [3]): 1.62

B2: IFNg: interferon gamma, cytokine modulator (protein, UniProt P01579 24-161, looked up)
Interferon gamma: QDPYVKEAENLKKYFNAGHSDVADNGTLFLGILKNWKEESDRKIMQSQIVSFYFKLFKNFKDDQSIQKSVETIKEDMNVKFFNSNKKKRDDFEKLTNYSVTDLNVQRKAIHELIQVMAELSPAAKTGKRKRSQMLFRG
Mean Value of CRs, p-Stat3 Fold (AML BMMC leukemic blasts; [4]): −0.02
Mean Value of NRs, p-Stat3 Fold (AML BMMC leukemic blasts; [5]): 0.2
Mean Value of CRs, p-Stat1 Fold (AML blasts; [2]): 0.45
Mean Value of CRs, p-Stat1 Total Phospho (AML blasts; [2]): 0.67
Mean Value of CRs, p-Stat3 Total Phospho (AML blasts; [2]): 0.68
Mean Value of CRs, p-Stat5 Total Phospho (AML blasts; [2]): 1.62
Mean Value of NRs, p-Stat1 Total Phospho (AML blasts; [3]): 1.27
Mean Value of NRs, p-Stat3 Total Phospho (AML blasts; [3]): 1.3
Mean Value of NRs, p-Stat5 Total Phospho (AML blasts; [3]): 2.35
Mean Value of NRs, p-Stat1 Fold (AML blasts; Study No. 1 sensitivity analysis, NR samples incl. CRp, negative = down regulation): 0.91

B3: M-CSF (protein, UniProt P09603 33-554, looked up)
Macrophage colony-stimulating …: EEVSEYCSHMIGSGHLQSLQRLIDSQMETSCQITFEFVDQEQLKDPVCYLKKAFLLVQDIMEDTMRFRDNTPNAIAIVQLQELSLRLKSCFTKDYEEHDKACVRTFYETPLQLLEKVKNVFNETKNLLDKDWNIFSKNCNNSFAECSSQDVVTKPDCNCLYPKAIPSSDPASVSPHQPLAPSMAPVAGLTWEDSEGTEGSSLLPGEQPLHTVDPGSAKQRPPRSTCQSFEPPETPVVKDSTIGGSPQPRPSVGAFNPGMEDILDSAMGTNWVPEEASGEASEIPVPQGTELSPSRPGGGSMQTEPARPSNFLSASSPLPASAKGQQPADVTGTALPRVGPVRPTGQDWNHTPQKTDHPSALLRDPPEPGSPRISSLRPQGLSNPSTLSAQPQLSRSHSSGSVLPLGELEGRRSTRDRRSPAEPEGGPASEGAARPLPRFNSVPLTDTGHERQSEGSFSPQLQESVFHLLVPSVILVLLAVGGLLFYRWRRRSHQEPQRADSPLEQPEGSPLTQDDRQVELPV
Mean Value of CRs, p-Akt Fold (AML blasts; [2]): −0.16
Mean Value of CRs, p-CREB Total Phospho (AML blasts; [2]): 1.26
Mean Value of CRs, p-Plcγ2 Total Phospho (AML blasts; [2]): 1.79
Mean Value of NRs, p-Akt Fold (AML blasts; [3]): 0.05
Mean Value of NRs, p-CREB Total Phospho (AML blasts; [3]): 1.76
Mean Value of NRs, p-Plcγ2 Total Phospho (AML blasts; [3]): 2.8

Source: patent US8399206B2, “Methods for diagnosis, prognosis and methods of treatment” (Nodality, Inc., priority 2008, dated 2013)
